Assay results taken from patent US9428542B2, “Lupane triterpenoid derivatives and pharmaceutical use thereof” (priority 2012, dated 2016).

Experiments:
[1] = system: HIV-1IIIB; experiment: HIV-1 full replication assay (HIV-1IIIB-infected MT-2 cells, supernatant read out on TZM-bl cells, β-Gal); format: cell-based; conditions: Human immunodeficiency virus 1, MT2, 72 h, inhibiting HIV-1IIIB replication in MT-2 cells, 3 days; read-out: IC50 (PM)
Description: The antiviral activity of the compounds of the present invention was determined in a HIV-1 full replication assay.
In this assay, MT-2 cells that are infected with HIV-1IIIB were co-cultured with different concentration of the tested compounds for 3 days and then supernatant is transferred into new 384-well plates containing TZM-bl cells (also called JC53-bl). TZM-bl cells that could be infected by various kinds of HIV-1 strains stably express a great amount of HIV-1 receptor, co-receptor CD4 molecular, and co-receptor CXCR4 and CCR5. TZM-bl cells harbor LTR-luciferase and β-gal two report genes. The expression of luciferase and β-gal reporter directed by HIV-1 LTR can be activated by Tat protein generated after HIV infection, and the quantity of expression is proportional to the quantity of HIV-1. Compounds that interfere with virus replication in MT-2 cells, maturation of the virus, or post-entry steps in the HIV lifecycle decrease the luciferase signal or β-gal signal. In this experiment, BVM (Bevirimat, PA-457) is used as a positive control drug.
Method for Inhibiting HIV-1 Replication Assay:
The MT-2 cells are infected at a Multiciplicity (MOI) of 0.01 TCID50, and then the MT-2 cells suspension was diluted to a needed concentration. 90 μl of the MT-2 cells suspension from above was added into 384-well plates containing 10 μl of the tested compounds.
Compounds were dissolved in DMSO and tested as 11 points 3-fold serial dilutions. After addition of cells to compound plates, plates were placed to humidified 5% CO2 37 incubator for 3 days. 10 μl of cells culture supernatant from the incubated plates was transferred into new black 384-well plates.
Adjusted the TZMb1 cells concentration and 40 μl of TZMb1 cells was added into each well in the black 384-well plates. After addition of the TZMb1 cells to the black plates, black plates were placed to humidified 5% CO2 37 incubator for 24 h, then β-Gal activity was measured.
The anti viral activity %=(measured number-lowest mean number)/(highest mean number-lowest mean number)×100. The IC50 values were calculated by Median Equation and the IC curve was generated by Graphpad Prism V 5.03.
(§1) TC50 is referred to the toxicity in MT-2 cells by the compounds tested at 50% concentration; IC50 is referred to the inhibiting HIV-1IIIB replication in MT-2 cells by the compounds tested at 50% concentration; Therapeutic Index (TI)=TC50/IC50.

[2] = system: MT-2 cells; experiment: Compounds' cytotoxicity assay in MT-2 cells (CellTiter-Glo); format: cell-based; parameters: unit not given here; conditions: toxicity in MT-2 cells, 3 days
Description: 3. Method for Compounds' Cytotoxicity Assay:
The MT-2 cells are diluted to a needed concentration. 90 μl of the MT-2 cells suspension was added into 384-well plates containing 10 μl of the tested compounds. Compounds were dissolved in DMSO and tested as 11 points 3-fold serial dilutions. After addition of cells to compound plates, plates were placed to humidified 5% CO2 37 incubator for 3 days. The Luciferase activity was measured by CellTiter-Glo® Luminescent Cell Viability Assay kit (Promega Corp., WI, USA).
as §1

Compound	IC50 [1] [nM]	TC50 (PM) [2]
CC(C)C1=C2[C@H]3CC[C@@H]4[C@@]5(C)CC[C@H](OC(=O)CC(C)(C)C(=O)O)C(C)(C)[C@@H]5CC[C@@]4(C)[C@]3(C)CC[C@@]2([C@H](O)c2nnc(-c3ccc(Cl)cc3)o2)CC1=O [Compound 127-2]	25	45
CC(C)C1=C2[C@H]3CC[C@@H]4[C@@]5(C)CC[C@H](OC(=O)CC(C)(C)C(=O)O)C(C)(C)[C@@H]5CC[C@@]4(C)[C@]3(C)CC[C@@]2([C@@H](O)c2nnc(-c3ccc(Cl)cn3)o2)CC1=O [Compound 127-3]	0.6	33
CC(C)C1=C2[C@H]3CC[C@@H]4[C@@]5(C)CC[C@H](OC(=O)CC(C)(C)C(=O)O)C(C)(C)[C@@H]5CC[C@@]4(C)[C@]3(C)CC[C@@]2([C@H](O)c2nnc(-c3ccc(Cl)cn3)o2)CC1=O [Compound 127-4]	38	200
CC(C)C1=C2[C@H]3CC[C@@H]4[C@@]5(C)CC[C@H](OC(=O)CC(C)(C)C(=O)O)C(C)(C)[C@@H]5CC[C@@]4(C)[C@]3(C)CC[C@@]2([C@@H](O)c2nnc(-c3ncc(Cl)cn3)o2)CC1=O [Compound 127-5]	1	38
CC(C)C1=C2[C@H]3CC[C@@H]4[C@@]5(C)CC[C@H](OC(=O)CC(C)(C)C(=O)O)C(C)(C)[C@@H]5CC[C@@]4(C)[C@]3(C)CC[C@@]2(c2nnc(Nc3ccc(Cl)cc3)o2)CC1=O [Compound 133-1]	10	21
CC(C)C1=C2[C@H]3CC[C@@H]4[C@@]5(C)CC[C@H](OC(=O)CC(C)(C)C(=O)O)C(C)(C)[C@@H]5CC[C@@]4(C)[C@]3(C)CC[C@@]2(c2nnc(N(CCN(C)C)c3ccc(Cl)cc3)o2)CC1=O [Compound 133-2]	≤ 0.17	47
CC(C)C1=C2[C@H]3CC[C@@H]4[C@@]5(C)CC[C@H](OC(=O)CC(C)(C)C(=O)O)C(C)(C)[C@@H]5CC[C@@]4(C)[C@]3(C)CC[C@@]2(Nc2nnc(-c3ccc(Cl)cc3)o2)CC1=O [Compound 141-1]	5.5	26
CC(C)C1=C2[C@H]3CC[C@@H]4[C@@]5(C)CC[C@H](OC(=O)CC(C)(C)C(=O)O)C(C)(C)[C@@H]5CC[C@@]4(C)[C@]3(C)CC[C@@]2(Nc2nnc(-c3ccc(Cl)cn3)o2)CC1=O [Compound 141-2]	0.26	24
CC(C)C1=C2[C@H]3CC[C@@H]4[C@@]5(C)CC[C@H](OC(=O)CC(C)(C)C(=O)O)C(C)(C)[C@@H]5CC[C@@]4(C)[C@]3(C)CC[C@@]2(Nc2nnc(-c3ncc(Cl)cn3)o2)CC1=O [Compound 141-3]	1.7	22
CC(C)C1=C2[C@H]3CC[C@@H]4[C@@]5(C)CC[C@H](OC(=O)CC(C)(C)C(=O)O)C(C)(C)[C@@H]5CC[C@@]4(C)[C@]3(C)CC[C@@]2(c2cc(=O)n(-c3ccc(Cl)cc3)n2CCN)CC1=O [Compound 155-1]	1.6	78
CC(C)C1=C2[C@H]3CC[C@@H]4[C@@]5(C)CC[C@H](OC(=O)CC(C)(C)C(=O)O)C(C)(C)[C@@H]5CC[C@@]4(C)[C@]3(C)CC[C@@]2(c2cc(=O)n(-c3ccc(Cl)cc3)n2CCN(C)C)CC1=O [Compound 156-1]	≤ 0.17	19
